Source: US9920030B2 (priority 2006, dated 2018)

Tests used:
Type in all cases: in vivo
[1] = system: Phytophthora infestans (the causal agent of tomato late blight); test: whole plant or invertebrate
[2] = system: Phytophthora infestans (the causal agent of tomato late blight); test: whole plant or invertebrate; remark: listed apart in the source
[3] = system: Plasmopara vilicola (the causal agent of grape downy mildew); test: Test A: grape downy mildew, test suspension sprayed on grape seedlings after inoculation, visual disease rating
Excerpt: General protocol for preparing test suspensions for Test A-C: The test compounds were first dissolved in acetone in an amount equal to 3% of the final volume and then suspended at the desired concentration (in ppm) in acetone and purified water (50/50 mix by volume) containing 250 ppm of the surfactant Trem® 014 (polyhydric alcohol esters). The resulting test suspensions were then used in Tests A-C. Spraying a 200 ppm test suspension to the point of run-off on the test plants was equivalent to a rate of 500 g/ha.
Grape seedlings were inoculated with a spore suspension of Plasmopara vilicola (the causal agent of grape downy mildew) and incubated in a saturated atmosphere at 20° C. for 24 h. After a short drying period, the test suspension was sprayed to the point of run-off on the grape seedlings, which were then moved to a growth chamber at 20° C. for 5 days, after which time the grape seedling were placed back into a saturated atmosphere at 20° C. for 24 h. Upon removal, visual disease ratings were made.
Results for Tests A-C are given in Table A. In the table, a rating of 100 indicates 100% disease control and a rating of 0 indicates no disease control (relative to the controls). A dash (-) indicates no test results.

[4] = compounds without asterisk (application rate not given), 100 = 100% disease control, 0 = no control relative to the controls

Row | Structure (SMILES) | Percent Disease Control, Test B ([1]; * tested at 40 ppm) [%] | Percent Disease Control, Test C ([2]; * tested at 40 ppm) [%] | Percent Disease Control, Test A ([3]; * tested at 40 ppm) [%] | Percent Disease Control, Test B [1, 4] [%] | Percent Disease Control, Test C [2, 4] [%] | Percent Disease Control, Test A [3, 4] [%]
1 | Cc1cc(C(F)(F)F)nn1CC(=O)N1CCC(c2nc(C3=NCC(c4ccccc4)CO3)cs2)CC1 (stereo not drawn) [Compound 53] | 68 | 26 | 24 |  |  | 
2 | Cc1cc(C(F)(F)F)nn1CC(=O)N1CCC(c2nc(C3=NC(c4ccccc4)CCO3)cs2)CC1 (stereo not drawn) [Compound 54] |  |  |  | 73 | 0 | 16
3 | COC(=O)C1CC(c2csc(C3CCN(C(=O)Cn4nc(C(F)(F)F)cc4C)CC3)n2)=NO1 (stereo not drawn) [Compound 55] |  |  |  | 26 | 0 | 17
4 | Cc1cc(C(F)(F)F)nn1CC(=O)N1CCC(c2nc(C3=NOC(C(C)(C)C)C3)cs2)CC1 (stereo not drawn) [Compound 56] |  |  |  | 100 | 99 | 99
5 | Cc1cc(C(F)(F)F)nn1CC(=O)N1CCC(c2nc(C3=NOC(CCBr)C3)cs2)CC1 (stereo not drawn) [Compound 57] |  |  |  | 100 | 99 | 99
6 | Cc1cc(C(F)(F)F)nn1CC(=O)N1CCC(c2nc(-c3nc4ccccc4[nH]3)cs2)CC1 [Compound 58] |  |  |  | 99 | 0 | 0
7 | Cc1cc(C(F)(F)F)nn1CC(=O)N1CCC(c2nc(-c3cc(-c4ccccc4F)on3)cs2)CC1 [Compound 59] | 100 | 91 | 97 |  |  | 
8 | Cc1cc(C(F)(F)F)nn1CC(=O)N1CCC(c2nc(-c3cc(-c4ccccc4C(F)(F)F)on3)cs2)CC1 [Compound 60] |  |  |  | 95 | 94 | 100
9 | Cc1cc(C(F)(F)F)nn1CC(=O)N1CCC(c2nc(-c3ccc4ccccc4c3)cs2)CC1 [Compound 61] |  |  |  | 77 | 0 | 80
10 | Cc1cc(C(F)(F)F)nn1CC(=O)N1CCC(c2nc(-c3ccccc3)cs2)CC1 [Compound 62] |  |  |  | 73 | 26 | 73
11 | Cc1cc(C(F)(F)F)nn1CC(=O)N1CCC(c2nc(-c3cc(-c4ccc(F)cc4F)on3)cs2)CC1 [Compound 64] |  |  |  | 99 | 88 | 90
12 | Cc1cc(C(F)(F)F)nn1CC(=O)N1CCC(c2nc(C3CC(=O)N(c4ccccc4)C3)cs2)CC1 (stereo not drawn) [Compound 65] |  |  |  | 100 | 83 | 46
13 | Cc1cc(C(F)(F)F)nn1CC(=O)N1CCC(c2nc(C3=NOC(C#N)C3)cs2)CC1 (stereo not drawn) [Compound 66] |  |  |  | 63 | 73 | 48
14 | Cc1cc(C(F)(F)F)nn1CC(=O)N1CCC(c2nc(C3=NOC4(CCCC4)C3)cs2)CC1 [Compound 67] | 100 | 99 | 100 |  |  | 
15 | Cc1cc(C(F)(F)F)nn1CC(=O)N1CCC(c2nc(-c3nc(-c4ccccc4)no3)cs2)CC1 [Compound 68] |  |  |  | 95 | 88 | 96
16 | Cc1cc(C(F)(F)F)nn1CC(=O)N1CCC(c2nc(-c3ccc(Oc4ccccc4)cc3)cs2)CC1 [Compound 72] |  |  |  | 100 | 52 | 72
17 | Cc1cc(C(F)(F)F)nn1CC(=O)N1CCC(c2nc(-c3cccc4ccccc34)cs2)CC1 [Compound 73] |  |  |  | 40 | 0 | 27
18 | Cc1cc(C(F)(F)F)nn1CC(=O)N1CCC(c2nc(-c3cccc(-c4ccccc4)c3)cs2)CC1 [Compound 74] |  |  |  | 40 | 0 | 50
